Test results reported in paper PMC4550094 (Journal of biomolecular screening, 2013).
Where “and” joins values, the source holds several entries; their conditions need not be identical. Equal values may be shown once. Read-outs that look alike come from different tables or passages of the source.

Experiments:
[1] = system: HepG2 cells; test: CellTiter-Glo cell viability assay; format: cell-based, Human; conditions: for Cell Viability IC50 / Cell Viability Efficacy (maximum inhibition of cell viability): HepG2, 24 h treatment, mean ± SD of three experiments; for IC50: Homo sapiens, HepG2, 24 h, read-out: Cell Viability IC50
[2] = system: HepG2 cells; test: LipidTOX Red PLD assay, qHTS, 1536-well high-content imaging; format: cell-based, Human; conditions: for Primary Screen Efficacy: LOPAC primary qHTS, % of PLD induction by 19.16 µM amiodarone; for Primary Screen Efficacy / EC50: HepG2, 24 h; for EC50: Homo sapiens; for PLD induction (result in words): HepG2, primary screen and cherry-pick confirmation
[3] = system: I13-35 cells; conditions: read-out: Literature-Reported EC50, cited from earlier work
[4] = system: HepG2 cells; conditions: cited from earlier work
[5] = read-out: Confirmation EC50 (PLD induction)
[6] = read-out: Primary Screen EC50 (PLD induction)

Compound	Cell Viability Efficacy (maximum inhibition of cell viability) [1]	EC50 [2, 5] [µM]	EC50 [2, 6] [µM]	PLD induction (result in words) [2]	other results
CC(C)NCC(O)COc1cccc2ccccc12 (racemic) [(±)-Propranolol]					Cell Viability IC50 [1]: Inactive
NC(N)=NC(=O)c1nc(Cl)c(N2CCCCCC2)nc1N [5-(N,N-hexamethylene) amiloride]	40.7±4.9%				Primary Screen Efficacy [2]: 52.8%
CC(C)(C)[C@]1(O)CCN2C[C@H]3c4ccccc4CCc4cccc(c43)[C@@H]2C1 [(+)-Butaclamol]	47.2±18.3%				IC50 [1]: 47.8 ± 32.2 µM
NC12CC3CC(CC(C3)C1)C2 [Amantadine]		3.9 ± 4.5	0.9		EC50 ([3]; I13-35 cells): 239 µM
CN(C)CCC=C1c2ccccc2CCc2ccccc21 [Amitriptyline]		4.6 ± 0.5	10		EC50 ([4]; read-out: Literature-Reported EC50): 15 µM
COc1cc2nc(N3CCCN(C)CC3)nc(NC3CCN(Cc4ccccc4)CC3)c2cc1OC [BIX 01294]	98% and 98.6±3.3%	1.6 ± 0.4	3.5		IC50 [1]: 10 ± 1.6 µM
CC(N)Cc1c[nH]c2ccc(OCc3cccs3)cc12 (stereo not shown) [BW 723C86]	37.7±11.9%				Primary Screen Efficacy [2]: 62.2%
CN1CCN(c2nc3cc(C(F)(F)F)ccc3n3cccc23)CC1 [CGS-12066A]	56.7±13.3%				Primary Screen Efficacy [2]: 103.7%
CCN(CC)CCCC(C)Nc1ccnc2cc(Cl)ccc12 (stereo not shown) [Chloroquine]		23.6	28.2		EC50 [3]: 11.8 µM
CN(C)CCCN1c2ccccc2Sc2ccc(Cl)cc21 [Chlorpromazine]		5.4 ± 1.9	10		EC50 ([3]; I13-35 cells): 4.1 µM
CN(C)CCCC1(c2ccc(F)cc2)OCc2cc(C#N)ccc21 (stereo not shown) [Citalopram]		27.5 ± 3.1	10		EC50 ([3]; I13-35 cells): 38 µM
CN1CCN(C2=Nc3cc(Cl)ccc3Nc3ccccc32)CC1 [Clozapine]					Literature-Reported: Active at (concentration) [4]: Active at 16 µM
CNCCCN1c2ccccc2CCc2ccccc21 [Desipramine]		5.1 ± 1.1	11.2		EC50 ([3]; I13-35 cells): 9.1 µM
CN(C)CCC=C1c2ccccc2COc2ccccc21 [Doxepin]					Literature-Reported: Active at (concentration) [4]: Active at 25 µM
OC(CN1CCC(Cc2ccc(F)cc2)CC1)c1ccc(Cl)cc1 (stereo not shown) [Eliprodil]	24.6±2.1%	9 ± 5	10		IC50 [1]: 26.5 ± 2.2 µM
Cc1c2ccncc2c(C)c2c1[nH]c1ccccc12 [Ellipticine]	102.3±4.0%	9 ± 3.3	5		IC50 [1]: 29.8 ± 2.4 µM
COc1ccc(NC(=O)c2ccc(-c3ccc(-c4noc(C)n4)cc3C)cc2)cc1N1CCN(C)CC1 [GR 127935]	106.7±13.6%	0.8	6.3	significantly induced PLD formation	IC50 [1]: 42.6 ± 10.3 µM
COc1ccc2c(c1)c(CCN1CCOCC1)c(C)n2C(=O)c1cccc(Cl)c1Cl [GW405833]	70.0±58.7%				Primary Screen Efficacy [2]: 49.4%
CC(C(O)c1ccc(O)cc1)N1CCC(Cc2ccccc2)CC1 (stereo not shown) [Ifenprodil]	25.5±0.8%	12.3 ± 6.7	7.9		IC50 [1]: 21.1 ± 1.7 µM
CN(C)CCCN1c2ccccc2CCc2ccccc21 [Imipramine]		20.8 ± 6.9	10		EC50 ([3]; I13-35 cells): 21 µM
COc1cc2nc(N3CCN(C(=O)OCc4ccccc4)[C@H](C(=O)NC(C)(C)C)C3)nc(N)c2cc1OC [L-765,314]	115.2±0.3%				Primary Screen Efficacy [2]: 54.1%
CC(CCc1ccccc1)NCC(O)c1ccc(O)c(C(N)=O)c1 (stereo not shown) [Labetalol]		24.8 ± 4.9	12.6		
CCOC(=O)N1CCC(=C2c3ccc(Cl)cc3CCc3cccnc32)CC1 [Loratadine]					Literature-Reported: Active at (concentration) [4]: Active at 16 µM

Compound	Cell Viability Efficacy (maximum inhibition of cell viability) [1]	EC50 [2, 5] [µM]	EC50 [2, 6] [µM]	PLD induction (result in words) [2]	other results
CC12CC3CC(C)(C1)CC(N)(C3)C2 [Memantine]		29 ± 1.7	12.6		EC50 ([3]; I13-35 cells): 93.7 µM
CN1C[C@H](CNC(=O)OCc2ccccc2)C[C@@H]2c3cccc4c3c(cn4C)C[C@H]21 [Metergoline]	127.9±4.1%	5.8 ± 1.3	2.5		IC50 [1]: 62.8 µM
CSc1ccc2c(c1)C(N1CCN(C)CC1)Cc1ccccc1S2 (stereo not shown) [Methiothepin]	121.8±9.0%				Primary Screen Efficacy [2]: 76.9%
COCC(=O)O[C@]1(CCN(C)CCCc2nc3ccccc3[nH]2)CCc2cc(F)ccc2[C@@H]1C(C)C [Mibefradil]	97.0±3.3%	10.4 ± 3.3	4.5		IC50 [1]: 25.2 ± 4.1 µM
COc1ccccc1N1CCN(CCCCN2C(=O)c3ccccc3C2=O)CC1 [NAN-190]		2 ± 0.3	2.2	significantly induced PLD formation	Cell Viability IC50 [1]: Inactive
CC(C)[C@H]1c2ccc(F)cc2CC[C@@]1(CCN(C)CCCc1nc2ccccc2[nH]1)OC(=O)C1CC1 [NNC 55-0396]	106% and 106.3±4.3%				Primary Screen Efficacy [2]: 91.6%
CN1CCN(C2Cc3ccccc3Sc3ccc(Cl)cc32)CC1.O=C(O)/C=C\C(=O)O (stereo not shown) [Octoclothepin]	121.0±4.9%				Primary Screen Efficacy [2]: 135.0%
C[C@@H]1O[C@@H](O[C@H]2C[C@@H](O)[C@]3(CO)[C@H]4[C@H](O)C[C@]5(C)[C@@H](C6=CC(=O)OC6)CC[C@]5(O)[C@@H]4CC[C@]3(O)C2)[C@H](O)[C@H](O)[C@H]1O [Ouabain]	43.6±1.1%	3 ± 1.8	0.4		Cell Viability Efficacy (maximum inhibition of cell viability) ([1]; listed as ouabain): 42%; IC50 [1]: 0.2 µM
CN(C)CCCN1c2ccccc2Sc2ccccc21 [Promazine]		5.7 ± 1.9	22.4		EC50 ([3]; I13-35 cells): 5.3 µM
CC[C@]1(O)C[C@@H]2CN(CCc3c([nH]c4ccccc34)[C@@](C(=O)OC)(c3cc4c(cc3OC)N(C)[C@H]3[C@@](O)(C(=O)OC)[C@H](OC(C)=O)[C@]5(CC)C=CCN6CC[C@]43[C@@H]65)C2)C1 [Vinblastine]		9.5 ± 5.5	12.6		Cell Viability IC50 [1]: Inactive
CN(C)C/C=C(/c1ccc(Br)cc1)c1cccnc1 [Zimelidine]		27.4 ± 1.5	14.1		EC50 ([3]; I13-35 cells): 30.4 µM
CN(C)CC/C=C1/c2ccccc2Sc2ccc(Cl)cc21 [chlorprothixene]				significantly induced PLD formation	
Cl.Cl.OCCN1CCN(CC/C=C2/c3ccccc3Sc3ccc(C(F)(F)F)cc32)CC1 [cis-(Z)-Flupenthixol]	131.7±6.4%			significantly induced PLD formation	Primary Screen Efficacy [2]: 37.3%
CN1CCC[C@@H]1CCO[C@](C)(c1ccccc1)c1ccc(Cl)cc1 [clemastine]				significantly induced PLD formation	
CN(C)CCC=C1c2ccccc2C=Cc2ccccc21 [cyclobenzaprine]				identified as novel PLD inducers	
CN1CCC(=C2c3ccccc3C=Cc3ccccc32)CC1 [cyproheptadine]				identified as novel PLD inducers	
OCCN1CCN(CCCN2c3ccccc3Sc3ccc(C(F)(F)F)cc32)CC1 [fluphenazine]				positive	
CN1CCN(C2=Nc3ccccc3Oc3ccc(Cl)cc32)CC1 [lozapine]				positive	
OCCN1CCN(CCCN2c3ccccc3C=Cc3ccccc32)CC1 [opipramol]				identified as novel PLD inducers	
COc1ccccc1N1CCN(CCN(C(=O)c2ccc(F)cc2)c2ccccn2)CC1 [p-MPPF]				significantly induced PLD formation	
CC(CN1c2ccccc2Sc2ccccc21)N(C)C (stereo not shown) [promethazine]				positive	
CN1CCN(CCCN2c3ccccc3Sc3ccc(C(F)(F)F)cc32)CC1 [trifluoperazine]				positive	
aminobenzotropine				significantly induced PLD formation	
